Key:
OAT3 = biological target: T1, OAT3 (Homo sapiens, UniProt Q8TCC7); details: cited from earlier work
T1 construct: expressed in transfected cells; host or cells: MDCK II cells
T1 sequence (Q8TCC7 1-542): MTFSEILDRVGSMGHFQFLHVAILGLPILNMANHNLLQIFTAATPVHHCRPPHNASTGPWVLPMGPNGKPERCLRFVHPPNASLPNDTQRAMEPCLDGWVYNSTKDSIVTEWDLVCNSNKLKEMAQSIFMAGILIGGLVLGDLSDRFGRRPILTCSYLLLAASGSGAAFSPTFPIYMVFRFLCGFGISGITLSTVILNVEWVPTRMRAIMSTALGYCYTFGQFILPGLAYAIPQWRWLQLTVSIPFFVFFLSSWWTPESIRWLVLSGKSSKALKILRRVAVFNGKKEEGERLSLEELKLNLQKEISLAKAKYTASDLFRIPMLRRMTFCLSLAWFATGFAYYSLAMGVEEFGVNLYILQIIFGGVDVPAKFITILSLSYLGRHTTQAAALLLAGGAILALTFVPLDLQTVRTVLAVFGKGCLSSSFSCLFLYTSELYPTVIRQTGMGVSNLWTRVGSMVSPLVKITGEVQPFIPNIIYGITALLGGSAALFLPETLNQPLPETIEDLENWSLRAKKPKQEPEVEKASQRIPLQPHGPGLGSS

anti-3MGA-mAb = assay: Dot-blot analysis using anti-3MGA-mAb; assay type: binding; details: 1 µg spotted on PES membrane, imaging analysis
Procedure: We confirmed the cross-reactivity of anti-3MGA-mAb against these GL metabolites. GL, GA, 3MGA, and compounds 1, 2, and 3 (1 µg each) were spotted on a polyethersulfone (PES) membrane, fixed onto the membrane, and colored using an anti-3MGA-mAb (Fig. 5A). […] Thus, the anti-3MGA-mAb cross-reacted to some extent with other metabolites of GL.
Figure 5 Dot-blot analysis and ELISA detection range of GL metabolites using anti-3MGA-monoclonal antibody (mAb). GL metabolites (1 µg each) were spotted on a PES membrane, and colored using an anti-3MGA-mAb (A). Competitive ELISA using anti-3MGA-mAb for GL metabolites was performed. Data are represented from a single analysis (n = 1) (B). […] Data are represented as mean ± S.D. (n = 3). Two-way ANOVA indicated a significant difference between GA and 3 (F1,36 = 4441, P < 0.001), concentrations (F8,36 = 315, P < 0.001), and their interactions (F8,36 = 281, P < 0.001). The calibrated line for the absorbance-concentration profile of 3 was calculated by the linear least-squares method, and the regression formula is shown in graph (C).
Anti-3MGA-mAb and 3MGA-human serum albumin (HSA)-conjugate were developed by the same protocols established in our previous studies[22],[23]. GL, GA, 3MGA, 1, 2, and 3 (1 µg each) were spotted on a Mustang^TM E positively charged PES membrane (Pall Co., East Hills, NY, USA). The membrane was then immersed into 0.1 M MES buffer (pH 4.7) containing 2% EDC and 1% NHS, and kept at room temperature for 1 h to activate the carboxyl group. After washing with distilled water, PBS containing 1% bovine serum albumin (BSA) was added to the membrane, which was shaken at room temperature for 2 h for fixation. Next, the membrane was blocked with PBS containing 5% skim milk (Morinaga-milk, Tokyo, Japan) and 0.1% Tween 20 at 4 °C overnight to reduce nonspecific adsorption. After washing twice with PBS containing 0.1% Tween 20 (T-PBS) for 5 min, the membrane was incubated with anti-3MGA-mAb and kept at room temperature for 3 h with constant agitation. The membrane was then washed twice with T-PBS for 5 min and treated with 1:500 diluted horseradish peroxidase (HRP)-labeled goat anti-mouse IgG (whole molecule; Sigma, St. Louis, MO, USA) antibody in T-PBS for 1 h with gentle shaking. Finally, the membrane was washed twice with T-PBS and once with PBS, and exposed to 1 mg/ml of freshly prepared 4-chloro-1-naphthol-0.03% H2O2 in PBS for 15 min at room temperature. The reaction was stopped by washing with distilled water, and the immunostained PES membrane was allowed to dry and then photographed. The positively stained areas were measured using Image J 1.46r (http://imageJ.nih.gov/ij).

[1] = biological target: T2, rat type 2 11β-hydroxysteroid dehydrogenase (11β-HSD2) (Rattus norvegicus, UniProt P50233); assay: Inhibition of 11β-HSD2 in rat kidney microsome fraction; assay type: biochemical; details: for IC50: 37 °C, 30 min
T2 construct: from tissue; host or cells: rat kidney microsome fraction
T2 sequence (P50233 1-400): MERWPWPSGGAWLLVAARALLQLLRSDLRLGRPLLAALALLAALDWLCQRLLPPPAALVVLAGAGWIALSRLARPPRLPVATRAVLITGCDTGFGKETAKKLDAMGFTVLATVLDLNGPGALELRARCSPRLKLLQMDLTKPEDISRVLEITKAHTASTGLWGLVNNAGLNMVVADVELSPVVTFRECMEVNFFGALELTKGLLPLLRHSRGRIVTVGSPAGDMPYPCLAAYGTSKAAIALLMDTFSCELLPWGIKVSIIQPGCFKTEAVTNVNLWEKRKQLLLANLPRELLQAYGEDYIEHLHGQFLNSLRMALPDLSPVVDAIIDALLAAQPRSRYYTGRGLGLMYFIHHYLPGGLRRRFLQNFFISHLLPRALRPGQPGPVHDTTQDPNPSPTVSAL
Procedure: Compounds 2 and 3 inhibited 11β-HSD2 in a rat kidney microsome fraction in a concentrations-dependent manner (Fig. 2).
Figure 2 Inhibitory effects of 2 and 3 on 11β-HSD2 using rat kidney microsome. [^3H] cortisone and each compound were mixed with the rat kidney microsome fraction, and incubated at 37 °C for 30 min. Then, the amount of [^3H] cortisol was measured. Data are expressed as mean ± S.E. (n = 4) of the percentage relative to the amount of [^3H] cortisol in the mixture without samples. **P < 0.01 and ***P < 0.001 compared with the groups without the samples by Dunnett’s multiple t-test for compounds 2 and 3, and by Student’s t-test for GA.
Assays were conducted as described by Diederich et al.[20] with slight modifications as described in our previous report.

SMILES | substrate of OAT3 (OAT3) | area of positive staining in dot-blot (anti-3MGA-mAb) [pixels] | inhibitory titer on 11β-HSD2 compared with GA [1] | IC50 [1] [nM]
CC1(C)[C@@H](O[C@@H]2O[C@H](C(=O)O)[C@@H](O)[C@H](O)[C@H]2O)CC[C@]2(C)[C@H]3C(=O)C=C4[C@@H]5C[C@@](C)(C(=O)O)CC[C@]5(C)CC[C@@]4(C)[C@]3(C)CC[C@@H]12 [3MGA, 3-monoglucuronyl glycyrrhetinic acid, reference compound] | substrate | 3395 |  | 
CC1(C)[C@@H](O)CC[C@]2(C)[C@H]3C(=O)C=C4[C@@H]5C[C@@](C)(C(=O)O)CC[C@]5(C)CC[C@@]4(C)[C@]3(C)CC[C@@H]12 [GA, glycyrrhetinic acid, reference compound] |  | 97 |  | 
CC1(C)[C@@H](OS(=O)(=O)O)CC[C@]2(C)[C@H]3C(=O)C=C4[C@@H]5C[C@@](C)(C(=O)O[C@@H]6O[C@H](C(=O)O)[C@@H](O)[C@H](O)[C@H]6O)C[C@H](O)[C@]5(C)CC[C@@]4(C)[C@]3(C)CC[C@@H]12 [compound 1, 22α-hydroxy-18β-glycyrrhetyl-3-O-sulfate-30-glucuronide] | substrate | 606 |  | 
CC1(C)[C@@H](OS(=O)(=O)O)CC[C@]2(C)[C@H]3C(=O)C=C4[C@@H]5C[C@@](C)(C(=O)O)C[C@H](O)[C@]5(C)CC[C@@]4(C)[C@]3(C)CC[C@@H]12 [compound 2, 22α-hydroxy-18β-glycyrrhetyl-3-O-sulfate] |  | 79 | slightly higher than that of GA | 110
CC1(C)[C@@H](OS(=O)(=O)O)CC[C@]2(C)[C@H]3C(=O)C=C4[C@@H]5C[C@@](C)(C(=O)O)CC[C@]5(C)CC[C@@]4(C)[C@]3(C)CC[C@@H]12 [compound 3, 18β-glycyrrhetyl-3-O-sulfate] |  | 146 | slightly higher than that of GA | 100

— article PMC6367500, “18β-glycyrrhetyl-3-O-sulfate would be a causative agent of licorice-induced pseudoaldosteronism” (Scientific Reports, 2019)
